Laboratory results from US9320759B2, “Methods and compositions for treating, reducing or preventing deterioration of the visual system of animals” (Nestec S.A, priority 2011, dated 2016).

Columns and labels:
[1] = system: TUNEL-positive cells in the ischemic boundary cortex; test: TUNEL staining and cell death quantification after transient middle cerebral artery occlusion; type: in vivo, rat; conditions: OVX female rats, 4 weeks diet (E2 1 week), 1 hour MCA occlusion, 24 hours reperfusion
Experimental: Young adult (2 to 3 months old) female Charles River rats were ovariectomized (OVX) and fed one of 5 compositions for 4 weeks or treated with estradiol (E2) as a positive control for one week. The animal groups and respective compositions were: At the end of the 4 weeks of feeding (or 1 week of E2 treatment), the animals were subjected to a transient (1 hour) middle cerebral artery occlusion followed by reperfusion for 24 hours to mimic one of the main causes of neuron loss. Then, the animals were euthanized for determination of brain lesion volume and subsequent terminal deoxynucleotidyl transferase dUTP nick end labeling (TUNEL) staining to evaluate apoptosis in and around brain lesions. TUNEL staining was conducted on the same tissue used for assessment of lesion volume in Example 2. Brain slices were post-fixed in 4% formalin for later sectioning for subsequent staining for TUNEL positive neurons. DNA fragmentation was detected by a TUNEL method using a Dead END fluorescent kit (Promega, Madison, Wis.) according to the manufacturer's instruction. […] Within these boundaries, optical dissectors were systematically randomly sampled and the number of positive cells, together with DAPI labeled nuclear counter-stain in each optical section is counted. […] The data were expressed as the percentage of DAPI nuclear counter-stained cells.

[2] = system: brain lesion (infarcted area) after middle cerebral artery occlusion; test: TTC staining, brain lesion volume after transient middle cerebral artery occlusion; type: in vivo, rat; conditions: OVX female rats, 4 weeks diet (E2 1 week), 1 hour MCA occlusion, 24 hours reperfusion
Experimental: Young adult (2 to 3 months old) female Charles River rats were ovariectomized (OVX) and fed one of 5 compositions for 4 weeks or treated with estradiol (E2) as a positive control for one week. The animal groups and respective compositions were: At the end of the 4 weeks of feeding (or 1 week of E2 treatment), the animals were subjected to a transient (1 hour) middle cerebral artery occlusion followed by reperfusion for 24 hours to mimic one of the main causes of neuron loss. […] Photographs were taken with a digital camera. The digital images of each brain section were used to calculate lesion volume for the infracted area of the brain.

SMILES: C[C@]12CC[C@@H]3c4ccc(O)cc4CC[C@H]3[C@@H]1CC[C@@H]2O [17β-Estradiol]
- TUNEL Staining Value (TUNEL-positive cells normalized to the total number of cells by DAPI stain) [1]: 37.69 percentage of DAPI nuclear counter-stained cells
- Lesion Volume Value [2]: 147.41
